The values that follow come from patent publication US20070116822A1, “HIGH-POTENCY SWEETENER COMPOSITION WITH SAPONIN AND COMPOSITIONS SWEETENED THEREWITH” (THE COCA-COLA COMPANY, priority 2005, published 2007).

Where only a bound is given, the exact number is not on record here.

Data set [1] is described as follows: Sensory evaluation of sweetness linger by a panel of experts. More on the design: key: 0=no sweetness linger; 1=very slight sweetness linger; 2=slight sweetness linger; 3=moderate sweetness linger; 4=moderately high sweetness linger; 5=high sweetness linger. The data set is classed as in vivo. The following applies: for Sweetness linger rating: scale 0-5; for Sweetness Linger rating (defined scale anchors): rating defined for the protocol, REBA control sample 500 ppm. As for the experimental part:
As used herein, the phrases “sugar-like characteristic,” “sugar-like taste,” “sugar-like sweet,” “sugary,” and “sugar-like” are synonymous. […] These characteristics are dimensions in which the taste of sucrose is different from the tastes of natural and synthetic high-potency sweeteners. Whether or not a characteristic is more sugar-like is determined by expert sensory panel assessments of sugar and compositions comprising at least one natural and/or synthetic high-potency sweetener, both with and without a sweet taste improving composition. Such assessments quantify similarities of the characteristics of compositions comprising at least one natural and/or synthetic high-potency sweetener, both with and without a sweet taste improving composition, with those comprising sugar. Suitable procedures for determining whether a composition has a more sugar-like taste are well known in the art.
In a particular embodiment, a panel of assessors is used to measure the reduction of sweetness linger. Briefly described, a panel of assessors (generally 8 to 12 individuals) is trained to evaluate sweetness perception and measure sweetness at several time points from when the sample is initially taken into the mouth until 3 minutes after it has been expectorated. […] A decrease in score for a time point measured after the sample has cleared the mouth indicates there has been a reduction in sweetness perception.
The panel of assessors may be trained using procedures well known to those of ordinary skill in the art. In a particular embodiment, the panel of assessors may be trained using the Spectrum™ Descriptive Analysis Method (Meilgaard et al, Sensory Evaluation Techniques, 3rd edition, Chapter 11). Desirably, the focus of training should be the recognition of and the measure of the basic tastes; specifically, sweet. In order to ensure accuracy and reproducibility of results, each assessor should repeat the measure of the reduction of sweetness linger about three to about five times per sample, taking at least a five minute break between each repetition and/or sample and rinsing well with water to clear the mouth.
Generally, the method of measuring sweetness comprises taking a 10 mL sample into the mouth, holding the sample in the mouth for 5 seconds and gently swirling the sample in the mouth, rating the sweetness intensity perceived at 5 seconds, expectorating the sample (without swallowing following expectorating the sample), rinsing with one mouthful of water (e.g., vigorously moving water in mouth as if with mouth wash) and expectorating the rinse water, rating the sweetness intensity perceived immediately upon expectorating the rinse water, waiting 45 seconds and, while wating those 45 seconds, identifying the time of maximum perceived sweetness intensity and rating the sweetness intensity at that time (moving the mouth normally and swallowing as needed), rating the sweetness intensity after another […], rating the sweetness intensity after another 60 seconds (cumulative 120 seconds after rinse), and rating the sweetness intensity after still another 60 seconds (cumulative 180 seconds after rinse). Between samples take a 5 minute break, rinsing well with water to clear the mouth.
Sensory evaluation of the samples prepared in Example Set G was carried out under the following protocol, similar to that described hereinabove. In this test protocol, none of the samples were swallowed. All samples were expectorated and the mouth was rinsed with water after the tasting. Immediately upon sensing maximal sweetness, the sample was expectorated, the mouth was rinsed with water and the rate of sweetness decay (“Sweetness Linger”) was measured, where attention was focused on the sweetness 3-4 min after the water rinse. After sample tasting was complete, a salty oyster cracker was chewed followed by a water rinse, and at least 5 minutes followed before tasting the next sample. […]

Data set [2] is classed as physicochemical. As for the experimental part: A solution of rebaudioside A (>97% pure by HPLC ) was prepared in double distilled water (12.5 gm in 50 mL, 25% concentration) by stirring the mixture at 40° C. for 5 minutes. An amorphous form of rebaudioside A was formed by immediately using the clear solution for spray drying with the Lab-Plant spray drier SD-04 instrument (Lab-Plant Ltd., West Yorkshire, U.K.). The solution was fed through the feed pump into the nozzle atomizer which atomized it into a spray of droplets with the help of a constant flow of nitrogen/air. […] This dry powder (11-12 g, H2O 6.74%) was discharged continuously from the drying chamber and was collected in a bottle.

The mark [3] stands for this setting: Example Set G, citric acid/potassium citrate composition equivalent to diet lemon-lime beverage, sweetness 3-4 min after water rinse.
Setting [4] is: Example Set H, carbon-treated water, phosphoric acid (75%) to pH 2.4-2.5, protocol of Example Set G.

Consider `OC[C@H]1O[C@@](CO)(O[C@H]2O[C@H](CO)[C@@H](O)[C@H](O)[C@H]2O)[C@@H](O)[C@@H]1O` [sugar, sucrose], for which the Sweetness linger rating in data set [1] (setting [3]) and in data set [1] (setting [4]) was 0 each time. For the same compound, the “Sweetness Linger rating (defined scale anchors)” value in data set [1] is listed as 0.

rebaudioside A: the Sweetness linger rating in data set [1] (setting [3]) and in data set [1] (setting [4]) was 5 throughout. For the same compound, the “Sweetness Linger rating (defined scale anchors)” value in data set [1] turned out to be 5.

On to rebaudioside A [Form 4], for which the “Solubility in water at room temperature” value in data set [2] is recorded as > 35.0%.
